For assay [1], the system named is Mouse p-phenylquinone writhing. The assay can be described thus: Mouse p-phenylquinone writhing test. Type of assay: in vivo, mouse (male Charles River). The note with it: p-phenylquinone 0.02% i.p. 20 min after dosing, animals completely protected in 8 min; for IN VIVO TESTS - ED50, Mouse p-phenylquinone writhing: s.c.; for ED50: Mus musculus, sc, read-out: IN VIVO TESTS - ED50, Mouse p-phenylquinone writhing. How it is done:
(§1) Inhibition of contraction in electrically stimulated rabbit vas deferens indicate Kappa receptor agonism.
Writhing test (According to Siegmund et al., Proc. Soc. Exptl. Biol. 95, 729/1957)
Male Charles River mice, average weight 26 g, are randomly distributed into groups of 10 and are dosed subcutaneously with compounds under test, dissolved in isotonic saline (20 ml.Kg^-1). The experiments are carried out in the presence of positive and negative controls. 20 min after the mice are injected intraperitoneally with p-phenylquinone 0.02%, 10 ml.Kg^-1, maintained at 37° C. in a water bath. The mice are placed in a perspex compartmented observation box and observed for a period of 8 min after injection of p-phenylquinone. The dose-response curve is obtained by basing observation on the all or none response.
(In writhing tests, fewer writhes than in controls are read as antinociception.)

Assay [2] concerns the target T1, μ receptor (Cavia porcellus, UniProt A0ACM8Q262).
T1 construct: 3H-DAGO (DAMGO) displacement
The assay can be described thus: Radio receptor binding to μ sites (3H-DAGO). The conditions noted are these: guinea pig brain homogenate without cerebellum, 25° C., 40 min, pH 7.4. The method, then:
Radio receptor binding to μ and k sites is performed on fresh guinea pig brain homogenate prepared according to Kosterlitz. (1981)
(§2) […] brain without cerebellum is homogenized in 50 mM, Tris-buffer (pH 7.4 at 0° C.) and centrifuged at 49,000×g×10 min. The pellet is then resuspended in the same buffer, incubated at 37° C. for 45 min. and centrifuged again.
(§3) 1.9 ml of the final homogenate (1:100 in Tris-pH 7.4, 0° C.) is used for the binding assay.
Binding to μ sites (Magnan J., 1982):
^3 H [D-Ala^2, MePhe^4, Gly-ol^5 ] Enkephalin (^3 H-DAGO), an enkephalin analogue that binds selectively to μ receptor, is added to the biological substrate and incubated at 25° C. for 40 min., filtered through Whatman GF-C and washed with ice-cold Tris-buffer. The filters are then dried, solubilized in Filtercount and the radioactivity monitored. Non specific binding is determined in the presence of 10^-6 M Naloxone.
For the calculation of the kinetic parameters of the binding of labelled and unlabelled ligands, the equilibrium dissociation constant (KD), and the inhibition constant (Ki) and the maximum number of binding sites (B max) are determined from saturation curves and competition experiments (Hill 1910; Scatchard 1949; Cheng and Prusoff 1973; Gillan et al. 1980).
(§4) A concentration of radioligant near KD is used in the binding assays evaluating our compounds.

The target of assay [3] is T2, k (Kappa) opioid receptor (Cavia porcellus, UniProt P41144).
T2 construct: fresh guinea pig brain homogenate; from tissue; host or cells: guinea pig whole brain without cerebellum, washed membrane homogenate
T2 sequence (P41144 whole entry): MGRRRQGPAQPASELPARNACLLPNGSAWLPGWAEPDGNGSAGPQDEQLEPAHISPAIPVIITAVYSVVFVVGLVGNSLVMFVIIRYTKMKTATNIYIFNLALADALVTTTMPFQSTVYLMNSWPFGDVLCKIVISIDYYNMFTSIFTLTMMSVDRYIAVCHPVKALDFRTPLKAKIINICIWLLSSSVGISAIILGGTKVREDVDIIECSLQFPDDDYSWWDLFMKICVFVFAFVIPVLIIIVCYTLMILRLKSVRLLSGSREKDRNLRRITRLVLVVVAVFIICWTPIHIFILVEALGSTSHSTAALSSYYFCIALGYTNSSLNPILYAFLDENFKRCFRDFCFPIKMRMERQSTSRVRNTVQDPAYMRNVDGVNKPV
The assay can be described thus: Radio receptor binding to k sites (tritiated Ethylketocyclazocine). On the set-up: species or system guinea pig. The method, then:
Radio receptor binding to μ and k sites is performed on fresh guinea pig brain homogenate prepared according to Kosterlitz.
as §2, §3
The binding of tritiated Ethylketocyclazocine to brain homogenate is measured in the presence of 100 nanomolar D-Ala-D-LeuEnkephalin (DADLE) and 100 nanomolar DAGO, added to saturate the δ and μ opioid receptors respectively.
Final homogenate with solutions of the cold ligand and of the labelled ligand is incubated for 40 min at 25° C., filtered through Whatman GF/C glass filter discs and washed.
The radioactivity bound to the filters is counted by liquid scintillation spectrophotometry.
as §4

Assay [4] concerns Mouse tail flick. The assay can be described thus: Mouse tail flick test. The note with it: s.c., 30 min after dosing, mice doubling the initial reaction time; for ED50: Mus musculus, sc, 0.5 h, read-out: IN VIVO TESTS - ED50, Mouse tail flick. Type of assay: in vivo, mouse (male Charles River). How it is done: as §1
Tail-flick test (Modified from the procedure published by D'Amour et al., J. Pharm. Exptl. Ther. 72, 74/1941)
Male Charles River mice, average weight 26 g, are used. Selection is carried out before beginning of experiments: only mice whose reaction time is less than 8 sec are used. They are randomly distributed into groups of 10 and dosed with compounds under test, with positive and negative controls being included.
Compounds under test are administered subcutaneously in isotonic saline in a volume of 20 ml.Kg^-1. 30 min later mice are placed again under heat source (Socrel apparatus) and reaction time is recorded.
Analgesic activity of the test compound is expressed as the percent number of mice doubling the initial time within a group. [formula]
For orientation: Thermal pain tests record how soon the animal reacts.

As a reminder, the Ki is a measure of affinity in units of concentration, obtained from inhibition or displacement. What is called ED50 is the dose that gives a 50% effect, or the effect in half of the subjects.

Each structure is given as a SMILES string. Where a name gives a salt, the structure may show the parent alone. Read-outs that look alike come from different tables or passages of the source.

T1 sequence (A0ACM8Q262 1-400): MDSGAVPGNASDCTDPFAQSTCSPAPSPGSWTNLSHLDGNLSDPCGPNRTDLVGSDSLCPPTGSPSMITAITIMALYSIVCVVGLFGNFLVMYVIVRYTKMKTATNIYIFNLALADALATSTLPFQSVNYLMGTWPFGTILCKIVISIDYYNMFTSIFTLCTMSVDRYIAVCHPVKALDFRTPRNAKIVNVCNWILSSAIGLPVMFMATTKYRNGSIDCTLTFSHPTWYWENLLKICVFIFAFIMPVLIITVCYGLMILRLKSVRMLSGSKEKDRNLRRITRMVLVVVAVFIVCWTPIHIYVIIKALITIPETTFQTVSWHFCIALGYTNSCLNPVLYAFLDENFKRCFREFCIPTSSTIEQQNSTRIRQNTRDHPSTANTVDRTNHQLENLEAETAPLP

With `CN(C)C[C@H]1Cc2ccccc2CN1C(=O)Cc1ccc(Cl)c(Cl)c1` [Example 5, (R)-2-(3,4-dichlorophenyl)acetyl-3-dimethylaminomethyl-1,2,3,4-tetrahydroisoquinoline hydrochloride], the “IN VIVO TESTS - ED50, Mouse p-phenylquinone writhing” value in assay [1] is given as “N.E”. Also, the Ki in assay [2] was found to be 2560 nM; in assay [3] (guinea pig brain homogenate without cerebellum, tritiated Ethylketocyclazocine with 100 nM DADLE and 100 nM DAGO, 25° C., 40 min, read-out: RECEPTOR BINDING - Ki, k), 637 nM. For the same molecule, the “IN VIVO TESTS - ED50, Mouse tail flick” value in assay [4] is “N.E”.

Consider `O=C(Cc1ccc(Cl)c(Cl)c1)N1Cc2ccccc2C[C@@H]1CN1CCCC1` [Example 2, (R)-2-(3,4-dichlorophenyl)acetyl-3-(1-pyrrolidinyl)methyl-1-2,3,4-tetrahydroisoquinoline hydrochloride], for which the “IN VIVO TESTS - ED50, Mouse p-phenylquinone writhing” value in assay [1] is “N.E”. The values for the inhibitory constant (Ki) in assay [2] and in assay [3] were 1420 nM and above 1 nM, respectively. The “IN VIVO TESTS - ED50, Mouse tail flick” value in assay [4] is listed as “N.E”.

Turning to `CN(C)CC1Cc2ccccc2CN1C(=O)Cc1ccc(Cl)c(Cl)c1` (racemic) [Example 4, (R,S)-2-(3,4-dichlorophenylacetyl)-3-dimethylaminomethyl-1,2,3,4-tetrahydroisoquinoline hydrochloride], the results for the 50% effective dose (ED50) in assay [1] and in assay [4] were 3.76 mg/kg and 7.2 mg/kg, respectively. Besides, the Ki in assay [2] worked out at 1360 nM; in assay [3], 17.5 nM.

In the case of `CN(C)C[C@@H]1Cc2ccccc2CN1C(=O)Cc1ccc(Cl)c(Cl)c1` [Example 6, (S)-2-(3,4-dichlorophenylacetyl)-3-dimethylaminomethyl-1,2,3,4-tetrahydroisoquinoline hydrochloride], the results for the 50% effective dose (ED50) in assay [1] and in assay [4] were 2.05 mg/kg and 1.65 mg/kg, respectively. For the same molecule, the Ki was 1080 nM in assay [2] and 11 nM in assay [3].

For `O=C(Cc1ccc(Cl)c(Cl)c1)N1Cc2ccccc2C[C@H]1CN1CCCC1` [Example 3, (S)-2-(3,4-dichlorophenyl)acetyl-3-(1-pyrrolidinyl)methyl-1,2,3,4-tetrahydroisoquinoline hydrochloride], the values for the ED50 in assay [1] and in assay [4] were 1.43 mg/kg and 1.58 mg/kg, respectively. The Ki in assay [2] turned out to be 764 nM; in assay [3], 8.03 nM.

For the molecule `O=C(Cc1ccc(Cl)c(Cl)c1)N1Cc2ccccc2CC1CN1CCCC1` (racemic) [Example 1, (R,S)-2-(3,4-dichlorophenyl)acetyl-3-(1-pyrrolidinyl)methyl-1,2,3,4-tetrahydroisoquinoline hydrochloride], the 50% effective dose (ED50) in assay [1] worked out at 2.64 mg/kg; in assay [4] it was 3.12 mg/kg. Besides, the Ki in assay [2] worked out at 960 nM; in assay [3], 9.45 nM.

Source of the values: patent US4753952A, “2-acyl-3-aminomethyl-1,2,3,4-tetrahydroquinolines” (Dr. Lo. Zambeletti S.p.A., priority 1985, dated 1988).
